Literature values in patent US11439617B2, “Polymeric compositions of monomethyl fumarate and their use in treating relapsing remitting multiple sclerosis and psoriasis” (priority 2017, dated 2022).
Structures can show the parent of a compound that is named as a salt.

Settings: in vivo

In the case of COC(=O)/C=C/C(=O)O [MMF, monomethyl fumarate], the Tmax is listed as “about 2.5 hours” and the half-life in circulation is listed as 36 h.
